Measurements from US11667602B2, “Compounds and their use” (AstraZeneca AB, priority 2020, dated 2023).
Values after ≈ are worked out from the molar mass of the structure shown.

Legend:
[1] = Human Plasma Protein Binding (Test B); type: in vitro ADME; conditions: fraction unbound (fu)
Outline: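 Values given as % free (fu) in human plasma, using the method of Wernevik et al. (2020). For compounds tested more than once, the arithmetic mean is given.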

[2] = Rat Hepatocyte Stability (Test E); type: in vitro ADME; conditions: rat, hepatocytes, geometric mean if run multiple times
Outline: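 Intrinsic clearance in rat hepatocytes, expressed as μl/min/10^6 cells, following the literature integrated DMPK panel method. Repeat determinations combined as geometric mean.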

Solubility (Test F) = type: physicochemical; conditions: arithmetic mean if run multiple times
Protocol: The assay was conducted according to the Solubility Assay described in pages 164-167 of Wernevik, J. et al., “A Fully Integrated Assay Panel for Early Drug Metabolism and Pharmacokinetics Profiling”, Assay and Drug Development Technologies, 2020, 18(4), 157-179. Data are reported in Table 36 as solubility ([…]. Where the assay was run multiple times for the same compound, the arithmetic mean is reported.

human RXFP1 = molecular target: T1, human RXFP1 (Homo sapiens, UniProt Q9HBX9); assay: RXFP1 Hu cAMP (Test A); type: cell-based; design: expressed in transfected cells; host or cells: Jump-In T-REx CHO-K1 cells (ThermoFisher), induced with 10 ng/ml doxycycline for 24 h; conditions: RXFP1 Hu cAMP; for EC50: read-out: Test A EC50
T1 sequence (Q9HBX9 1-757): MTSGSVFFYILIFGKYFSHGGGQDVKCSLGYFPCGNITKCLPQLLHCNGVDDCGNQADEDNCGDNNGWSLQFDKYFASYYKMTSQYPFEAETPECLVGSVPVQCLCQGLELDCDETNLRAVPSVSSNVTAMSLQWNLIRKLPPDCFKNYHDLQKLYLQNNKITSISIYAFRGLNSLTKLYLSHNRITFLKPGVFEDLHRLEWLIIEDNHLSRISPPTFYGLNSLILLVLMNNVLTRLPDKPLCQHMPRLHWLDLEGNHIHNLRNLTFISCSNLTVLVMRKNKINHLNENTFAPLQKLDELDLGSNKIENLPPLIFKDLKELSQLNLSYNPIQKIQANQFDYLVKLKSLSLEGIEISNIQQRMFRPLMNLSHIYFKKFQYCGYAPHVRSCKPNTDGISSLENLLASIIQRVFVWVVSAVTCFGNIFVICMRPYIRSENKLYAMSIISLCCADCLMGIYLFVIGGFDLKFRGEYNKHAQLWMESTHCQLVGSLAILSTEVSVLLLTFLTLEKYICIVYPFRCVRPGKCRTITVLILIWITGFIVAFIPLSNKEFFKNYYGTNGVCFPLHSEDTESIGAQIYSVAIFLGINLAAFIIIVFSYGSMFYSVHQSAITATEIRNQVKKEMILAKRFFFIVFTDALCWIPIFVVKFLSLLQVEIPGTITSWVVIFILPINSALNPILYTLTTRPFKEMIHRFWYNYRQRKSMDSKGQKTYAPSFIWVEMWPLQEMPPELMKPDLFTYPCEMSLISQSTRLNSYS
Outline: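 Doxycycline-induced (10 ng/ml, 24 h) CHO-K1 cells stably expressing human RXFP1; cAMP read by competitive HTRF after 2 h at room temperature, with 0.5 mM IBMX final.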

[3] = Human Liver Microsomal Stability (Test C); type: in vitro ADME; conditions: human, liver microsomes
Outline: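 CLint (μl/min/mg protein) derived from compound depletion in human liver microsomes following a published standardized early-DMPK protocol; replicate determinations given as arithmetic mean.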

| Test B Human Plasma Protein Binding (% free) [1] [% free] | hepatocyte CLint [2] [µL/min/1e6 cells] | solubility (Solubility (Test F)) [µM] | Test A Sinf (human RXFP1) [%] | EC50 (human RXFP1) [nM] | microsomal CLint [3] [µL/min/mg] | Structure (SMILES) |
| --- | --- | --- | --- | --- | --- | --- |
| 0.10 | 23 | 54 (≈ 33.9 µg/mL) | 101 | 88 | 21 | COc1cc(F)c(-c2ccc(C(=O)O)cc2)cc1C(=O)N[C@@H]1[C@H]2CC[C@H](C2)[C@@H]1C(=O)Nc1cccc(S(F)(F)(F)(F)F)c1 [Example 209, 2′-Fluoro-4′-methoxy-5′-(((1S,2R,3S,4R)-3-((3-(pentafluoro-λ6-sulfaneyl)phenyl)carbamoyl)bicyclo[2.2.1]heptan-2-yl)carbamoyl)-[1,1′-biphenyl]-4-carboxylic acid] |
| 16 | 23 | 890 (≈ 505 µg/mL) | 105 | 410 | 8 | COc1cc(C#N)c(O[C@H]2CC[C@@](C)(C(=O)O)CC2)cc1C(=O)N[C@@H]1[C@H]2CC[C@H](C2)[C@@H]1C(=O)NCC1(OC)CCC1 [Example 80] |
| 0.57 | 69 | 360 (≈ 238 µg/mL) | 108 |  | 69 | COc1cc(F)c(-c2ccc(/C=C/C(=O)O)nc2)cc1C(=O)N[C@@H]1[C@H]2CC[C@H](C2)[C@@H]1C(=O)Nc1cccc(S(=O)(=O)C(F)(F)F)c1 [Example 260, (E)-3-(5-(2-Fluoro-4-methoxy-5-(((1S,2R,3S,4R)-3-((3-((trifluoromethyl)sulfonyl)phenyl)carbamoyl)bicyclo[2.2.1]heptan-2-yl)carbamoyl)phenyl)pyridin-2-yl)acrylic acid] |
| 3.6 | 18 | > 1000 |  | > 40000 | < 3 | COc1cc(F)c(O[C@H]2CC[C@@H](C(=O)O)CC2)cc1C(=O)N[C@@H]1[C@H]2CC[C@H](C2)[C@@H]1C(=O)Nc1cc(Cl)cnn1 [Example 30, (1S,4s)-4-(5-(((1S,2R,3S,4R)-3-((5-Chloropyridazin-3-yl)carbamoyl)bicyclo[2.2.1]heptan-2-yl)carbamoyl)-2-fluoro-4-methoxyphenoxy)cyclohexane-1-carboxylic acid] |
| 13 | 18 | 1000 (≈ 549 µg/mL) | 96 | 380 | < 3 | COc1cc(F)c(O[C@H]2CC[C@@](C)(C(=O)O)CC2)cc1C(=O)N[C@@H]1[C@H]2CC[C@H](C2)[C@@H]1C(=O)NCC1(CF)CC1 [Example 48] |
| 17 | 28 | 940 (≈ 492 µg/mL) |  | 390 | < 3 | COc1cc(C#N)c(O[C@H]2CC[C@@](C)(C(=O)O)CC2)cc1C(=O)N[C@@H]1[C@H]2CC[C@H](C2)[C@@H]1C(=O)NCC1CC1 [Example 71, (1S,4s)-4-(2-Cyano-5-(((1S,2R,3S,4R)-3-((cyclopropylmethyl)carbamoyl)bicyclo[2.2.1]heptan-2-yl)carbamoyl)-4-methoxyphenoxy)-1-methylcyclohexane-1-carboxylic acid] |
| 0.30 | 12 | > 1000 | 114 | 34 | 31 | COc1cc(F)c(-c2ccc3c(c2)OC[C@@H]3CC(=O)O)cc1C(=O)N[C@@H]1[C@H]2CC[C@H](C2)[C@@H]1C(=O)Nc1cccc(S(=O)(=O)C(F)(F)F)c1 [Example 254] |
| 25 | 14 | 880 (≈ 500 µg/mL) | 110 |  | < 3 | COc1cc(C#N)c(O[C@H]2CC[C@@](C)(C(=O)O)CC2)cc1C(=O)N[C@@H]1[C@H]2CC[C@H](C2)[C@@H]1C(=O)NCC1(CO)CCC1 [Example 75] |
| 0.67 | 43 | 120 (≈ 72.8 µg/mL) | 109 | 35 | 21 | COc1cc(F)c(O[C@H]2CC[C@@H](C(=O)O)CC2)cc1C(=O)N[C@@H]1[C@H]2CC[C@H](C2)[C@@H]1C(=O)Nc1ccc(C)c(C(F)(F)F)c1 [Example 192, (1S,4s)-4-(2-Fluoro-4-methoxy-5-(((1S,2R,3S,4R)-3-((4-methyl-3-(trifluoromethyl)phenyl)carbamoyl)bicyclo[2.2.1]heptan-2-yl)carbamoyl)phenoxy)cyclohexane-1-carboxylic acid] |
| <0.25 | 12 | 48 (≈ 31.7 µg/mL) | 105 | 490 | 6.2 | COc1cc(F)c(-c2cccc(CCC(=O)O)c2)cc1C(=O)N[C@H]1[C@@H](C(=O)Nc2cccc(S(=O)(=O)C(F)(F)F)c2)[C@@H]2C=C[C@H]1C2 (racemic) [Example 282] |
| 40 | 14 | 950 (≈ 508 µg/mL) | 75 | > 3100 | < 3 | COc1cc(C#N)c(O[C@H]2CC[C@@](C)(C(=O)O)CC2)cc1C(=O)N[C@@H]1[C@H]2CC[C@H](C2)[C@@H]1C(=O)NC1(C#N)CC1 [Example 72] |
| 0.55 | 37 | 710 (≈ 442 µg/mL) | 89 | 600 | 13 | COc1cc(F)c(-c2cccc(CC(=O)O)c2)cc1C(=O)N[C@@H]1CCC[C@@H]1C(=O)Nc1cccc(S(=O)(=O)C(F)(F)F)c1 [Example 318] |
| 0.10 | 22 | 10 (≈ 6.33 µg/mL) | 98 | 240 | 6.6 | COc1cc(F)c(-c2cccc(C(=O)O)c2)cc1C(=O)N[C@H]1[C@@H](C(=O)Nc2cccc(S(=O)(=O)C(F)(F)F)c2)[C@@H]2C=C[C@H]1C2 (racemic) [Example 225, rac-2′-Fluoro-4′-methoxy-5′-(((1R,2R,3S,4S)-3-((3-((trifluoromethyl)sulfonyl)phenyl)carbamoyl)bicyclo[2.2.1]hept-5-en-2-yl)carbamoyl)-[1,1′-biphenyl]-3-carboxylic acid] |
| 2.5 | 48 | 220 (≈ 131 µg/mL) | 125 | 4.8 | > 300 | COc1cc(C#N)c(O[C@H]2CC[C@@](C)(C(=O)O)CC2)cc1C(=O)N[C@@H]1[C@H]2CC[C@H](C2)[C@@H]1C(=O)NCC1(C)CCCCCC1 [Example 105] |
| <0.29 | 15 | 220 (≈ 145 µg/mL) | 87 | 220 | 12 | COc1cc(F)c(-c2ccc(CCC(=O)O)cc2)cc1C(=O)N[C@H]1[C@@H](C(=O)Nc2cccc(S(=O)(=O)C(F)(F)F)c2)[C@@H]2C=C[C@H]1C2 (racemic) [Example 283] |
| 2.3 | 12 | 780 (≈ 519 µg/mL) | 97 | 130 | 19 | COc1cc(F)c(-c2cnc(NCC(=O)O)nc2)cc1C(=O)N[C@@H]1[C@H]2CC[C@H](C2)[C@@H]1C(=O)Nc1cccc(S(=O)(=O)C(F)(F)F)c1 [Example 240] |
| 0.93 | 61 | > 1000 | 105 | 62 | 29 | COc1cc(F)c(O[C@H]2CC[C@@H](C(=O)O)CC2)cc1C(=O)N[C@@H]1[C@H]2CC[C@H](C2)[C@@H]1C(=O)Nc1cccc(C(F)(F)F)c1 [Example 193] |
